In patent US7153875B2, “Heterocyclic derivatives for the treatment of cancer and other proliferative diseases” (Incyte San Diego, priority 2001, dated 2006):

## CC(C)(C)c1cc(-c2ccc(/C=C3\SC(=O)NC3=O)cc2)ccc1O [Compound 39, 4-[3-(t-Butyl)-4-hydroxy-phenyl]benzylidene-2,4-thiazolidinedione]
  melting point: 256 to 257 °C

## O=C1NC(=O)/C(=C/c2ccc(-c3ccc(O)c(C45CC6CC(CC(C6)C4)C5)c3)nc2)S1 [Compound 33]
  melting point: 315 to 318 °C

## Cc1cc(O)c(C23CC4CC(CC(C4)C2)C3)cc1-c1ccc(/C=C2\SC(=O)NC2=O)cc1 [Compound 36, 4-[3-(1-Adamantyl)-4-hydroxy-6-methyl-phenyl]benzylidene-2,4-thiazolidinedione]
  melting point: 275 to 280 °C

## O=C1NC(=O)/C(=C/c2ccc(-c3cc([N+](=O)[O-])c(O)c(C45CC6CC(CC(C6)C4)C5)c3)nc2)S1 [Compound 53]
  melting point: 291 to 293 °C

## Nc1cc(/C=C2\SC(=O)NC2=O)ccc1-c1ccc(O)c(C23CC4CC(CC(C4)C2)C3)c1 [Compound 51, 4-[3-(1-Adamantyl)-4-hydroxy-phenyl]-5-aminobenzylidene-2,4-thiazolidinedione]
  melting point: 167 to 169 °C

## O=C1NC(=O)/C(=C/c2ccc(-c3ccc(O)c(C45CC6CC(CC(C6)C4)C5)c3)c(OC(F)(F)F)c2)S1 [Compound 46, 4-[3-(1-Adamantyl)-4-hydroxy-phenyl]-5-triflouromethoxybenzylidene-2,4-thiazolidinedione]
  melting point: 238 to 240 °C

## COc1ccc(-c2ccc(/C=C3\SC(=S)NC3=O)cc2)cc1C12CC3CC(CC(C3)C1)C2 [Compound 6, 4-[3-(1-Adamantyl)-4-methoxyphenyl]-benzylidene-2-thioxo-4-thiazolidinedione]
  melting point: 313 to 317 °C

## O=C1NC(=O)C(c2ccc3cc(-c4ccc(O)c(C56CC7CC(CC(C7)C5)C6)c4)ccc3c2)S1 (stereo not shown) [Compound 24, 5-[6-(3-[1-Adamantyl]-4-hydroxyphenyl)-naphthalen-2-yl]-2,4-thiazolidinedione]
  melting point: 312 to 314.5 °C

## Cc1cc(/C=C2\SC(=O)NC2=O)ccc1-c1ccc(O)c(C23CC4CC(CC(C4)C2)C3)c1 [Compound 48, 4-[3-(1-Adamantyl)-4-hydroxy-phenyl]-5-methylbenzylidene-2,4-thiazolidinedione]
  melting point: > 305 °C (dec.)

## O=C1NC(=O)/C(=C/c2ccc(-c3cc(F)c(O)c(C45CC6CC(CC(C6)C4)C5)c3)cc2)S1 [Compound 34, 4-[3-(1-Adamantyl)-4-hydroxy-5-fluoro-phenyl]benzylidene-2,4-thiazolidinedione]
  melting point: 305 to 308 °C

## O=C1NC(=O)/C(=C/c2ccc(-c3cc(F)c(O)c(C45CC6CC(CC(C6)C4)C5)c3)nc2)S1 [Compound 37]
  melting point: 307 to 310 °C

## CCOc1cc(/C=C2\SC(=O)NC2=O)ccc1-c1ccc(O)c(C23CC4CC(CC(C4)C2)C3)c1 [Compound 49, 4-[3-(1-Adamantyl)-4-hydroxy-phenyl]-5-ethoxybenzylidene-2,4-thiazolidinedione]
  melting point: 298 to 302 °C

## C/C(=C1\SC(=O)NC1=O)c1ccc(-c2ccc(O)c(C34CC5CC(CC(C5)C3)C4)c2)nc1 [Compound 55, (E)-{1-[6-(3-Adamantan-1-yl-4-hydroxy-phenyl)-pyridin-3-yl]-ethylidene}-thiazolidine-2,4-dione]
  melting point: 224 to 225 °C

## COc1ccc(-c2ccc3cc(CC4SC(=O)NC4=O)ccc3c2)cc1C12CC3CC(CC(C3)C1)C2 (stereo not shown) [Compound 9, 6-[3-(1-Adamantyl)-4-methoxyphenyl]-naphthalen-2-yl-methyl-2,4-thiazolidinedione]
  melting point: 251 to 253 °C

## COc1cc(-c2ccc(/C=C3\SC(=O)NC3=O)cn2)cc(C23CC4CC(CC(C4)C2)C3)c1O [Compound 44]
  melting point: 211 to 216 °C

## CC1(c2cc(-c3ccc(/C=C4\SC(=O)NC4=O)cn3)ccc2O)CCCCC1 [Compound 47]
  melting point: 293 to 295 °C

## COc1ccc(-c2ccc3cc(C4SC(=O)NC4=O)ccc3c2)cc1C12CC3CC(CC(C3)C1)C2 (stereo not shown) [Compound 23, 5-[6-(3-[1-Adamantyl]-4-methoxyphenyl)-naphthalen-2-yl]-2,4-thiazolidinedione]
  melting point: 205 to 207 °C

## C/C(=C1/SC(=O)NC1=O)c1ccc(-c2ccc(O)c(C34CC5CC(CC(C5)C3)C4)c2)nc1 [Compound 54, (Z)-{1-[6-(3-Adamantan-1-yl-4-hydroxy-phenyl)-pyridin-3-yl]-ethylidene}-thiazolidine-2,4-dione]
  melting point: 181 to 182 °C

## O=C1NC(=O)/C(=C/c2ccc(-c3ccc(O)c(C45CC6CC(CC(C6)C4)C5)c3)c(F)c2)S1 [Compound 41, 4-[3-(1-Adamantyl)-4-hydroxy-phenyl]-5-fluorobenzylidene-2,4-thiazolidinedione]
  melting point: 270 to 274 °C

## CC(c1ccc(-c2ccc(O)c(C34CC5CC(CC(C5)C3)C4)c2)nc1)C1SC(=O)NC1=O (stereo not shown) [Compound 52, {1-[6-(3-Adamantan-1-yl-4-hydroxy-phenyl)-pyridin-3-yl]-ethyl}-thiazolidine-2,4-dione]
  melting point: 169 to 171 °C

## CC(C)(C)c1cc(-c2ccc(/C=C3\SC(=O)NC3=O)cn2)ccc1O [Compound 40]
  melting point: 303 to 304 °C

## O=C1NC(=O)/C(=C/c2ccc(-c3cc(Cl)c(O)c(C45CC6CC(CC(C6)C4)C5)c3)nc2)S1 [Compound 43]
  melting point: 339 to 342 °C

## COc1ccccc1-c1cc(-c2ccc(/C=C3\SC(=O)NC3=O)cc2)cc2c1OCO2 [Compound 4, 4-[3-(2-Methoxyphenyl)-4,5-methylenedioxyphenyl]-benzylidene-2,4-thiazolidinedione]
  melting point: 227 to 228 °C (dec.)

## O=C1NC(=O)/C(=C/c2ccc(-c3ccc(O)c(C45CC6CC(CC(C6)C4)C5)c3)c(Cl)c2)S1 [Compound 48, 4-[3-(1-Adamantyl)-4-hydroxy-phenyl]-5-chlorobenzylidene-2,4thiazolidinedione]
  melting point: > 280 °C (dec.)

## O=C1NC(=O)/C(=C/c2ccc(-c3ccc(O)c(C45CC6CC(CC(C6)C4)C5)c3)c(O)c2)S1 [Compound 35, 4-[3-(1-Adamantyl)-4-hydroxy-phenyl]-5-hydroxybenzylidene-2,4-thiazolidinedione]
  melting point: 224 to 226 °C

## O=C1NC(=O)/C(=C/c2ccc(-c3cc(Cl)c(O)c(C45CC6CC(CC(C6)C4)C5)c3)cc2)S1 [Compound 38, 4-[3-(1-Adamantyl)-4-hydroxy-5-chloro-phenyl]benzylidene-2,4-thiazolidinedione]
  melting point: 323 to 328 °C

## O=C1NC(=O)/C(=C/c2ccc(-c3ccc(O)c(C45CC6CC(CC(C6)C4)C5)c3)c([N+](=O)[O-])c2)S1 [Compound 50, 4-[3-(1-Adamantyl)-4-hydroxy-phenyl]-5-nitrobenzylidene-2,4-thiazolidinedione]
  melting point: 262 to 264 °C

## O=C1NC(=O)C(Cc2ccc3cc(-c4ccc(O)c(C56CC7CC(CC(C7)C5)C6)c4)ccc3c2)S1 (stereo not shown) [Compound 16, 6-[3-(1-Adamantyl)-4-hydroxyphenyl]-naphthalen-2-yl-methyl-2,4-thiazolidinedione]
  melting point: 270.5 to 272 °C

## COCOc1ccc(-c2ccc(/C=C3\SC(=O)NC3=O)cc2)cc1C12CC3CC(CC(C3)C1)C2 [Compound 10, 4-[3-(1-Adamantyl)-4-methoxymethoxyphenyl]-benzylidene-2,4-thiazolidinedione]
  melting point: 253 to 254.5 °C

## O=C1NC(=O)/C(=C/c2ccc(-c3ccc(O)c(C45CC6CC(CC(C6)C4)C5)c3)cc2F)S1 [Compound 42, 4-[3-(1-Adamantyl)-4-hydroxy-phenyl]-6-fluorobenzylidene-2,4-thiazolidinedione]
  melting point: 307 to 309 °C

## O=C1NC(=O)/C(=C/c2ccc(-c3ccc(O)c(C45CC6CC(CC(C6)C4)C5)c3)cc2)S1 [Compound 7, 4-[3-(1-Adamantyl)-4-hydroxyphenyl]benzylidene-2,4-thiazolidinedione]
  melting point: 307 to 308.5 °C
